Measurements: patent publication US7250157B2, “Dermatological compositions and methods” (Applied Genetics Incorporated Dermatics, priority 1996, dated 2007)

Assays:
[1] = tested on: nitric oxide in cell-free media from S91 cells; assay: Nitric oxide in cell-free media from S91 cells (Greiss reagent); assay type: cell-based, mouse; conditions: 4 days
Procedure: In a related experiment, nitric oxide was measured in cell-free media from S91 cells following treatment with a range of concentrations of 2,3-cis/exo-pinanediol or 5-norbornene-2,2-dimethanol for 4 days. In biological fluids, nitric oxide is converted into nitrite and nitrate with seconds of production. Therefore, nitric oxide is measured by first converting nitrate to nitrite using nitrate reductase, followed by addition of Greiss reagent to detect nitrite as optical density at 550 nm (Moshage, et al., 1995, Clin. Chem. 41:892-896; Schmidt, et al., 1995, Biochemica 2:22)). […] Moreover, the relative melanogenic potency of 2,3-cis/exo-pinanediol and 5-norbornene-2,2-dimethanol shown in FIG. 5 paralleled the relative potency of these compounds with regards to induction of nitric oxide (Table 17). […] It follows that measurement of induction of nitric oxide, cGMP or PKG may provide biochemically relevant screening assays for compounds that may be melanogenic. Thus, the utilization of these assays to screen compounds for melanogenic activity is claimed in the present invention.

[2] = tested on: tyrosinase activity in S91 mouse melanoma cells; assay: Induction of tyrosinase activity in S91 cells; conditions: for more tyrosinase activity than 5-norbornene-2,2-dimethanol: calculated from data in FIG. 5; for Tyrosinase dpm/hr 10^3 Cells / Tyrosinase dpm/hr ug Protein: 300 mM PG-1,2, 25 mM 3,3-M-1,2-BD, 50 mM 1,2-cs-CPD, 5 mM 5-NBene-2,2-DM, 0.5 mM 2,3-Pyd, 0.1 mM IBMX, mean ±SE
[3] = tested on: Cloudman S91 mouse melanoma cell line; assay: Cell count (proliferation, toxicity) of treated S91 cells; assay type: cell-based
Procedure: (§1) The Cloudman S91 mouse melanoma cell line was obtained from American Type Culture Collection (ATCC). Cells were cultured in Dulbecco's Modified Eagles Medium (DMEM) containing 10% calf serum, 2 mM L-glutamine, 10 U Penicillin/ml and 10 ug Streptomycin/ml according to a previously published protocol (Eller, et al., Proc. Natl. Acad. Sci. 93:1087-92. 1996). For testing propylene glycol and analogues for induction of melanogenesis, S91 cells were plated at 10^5 cells/35 mm dish in 10% calf serum. One day after plating, media was removed and replaced with media containing 2% calf serum and test compounds (Eller, et al., 1996). Cells were cultured for 6 days at 37° C. in 5% CO2 in a humidified incubator. Following this treatment period, cells were examined microscopically and the portion of dedifferentiated and differentiated cells was estimated. Previous studies have shown that dedifferentiated S91 cells have a rounded, spindly appearance while differentiated S91 cells have a flattened, cuboidal, multipolar and dendritic appearance (Orlow, et al., Exp. Cell Res. 191:209-218, 1990).
(§2) Following this microscopic examination, cells were detached from dishes by trypsin. The time required for detachment by trypsin was recorded as an additional indicator of the phenotypic effects of test compounds. For each treatment, a subsample of cells was counted to determine the effects of treatment compounds on cellular proliferation. The remainder of cells were used for determination of melanin content. Melanin was extracted from cells by vortexing for 15 min in 1N NaOH. Standards were prepared by dissolving melanin (Sigma) in 1 N NaOH (Eller, et al., 1996). Absorbance of standards and samples was measured at 475 nm. Melanin was expressed as pg melanin/cell.

[4] = tested on: American short-haired guinea pigs; assay: Topical melanogenesis (pigmentation rating) in guinea pigs; assay type: in vivo, guinea pig; parameters: Pigmentation Rating / Pigmentation Rating Background Corrected: scale not given here; conditions: for Pigmentation Rating Normalized to 1,2-PG / Pigmentation Rating Normalized to 1M / Pigmentation Rating Background Corrected / Pigmentation Rating: No Penetration Enhancer; for Pigmentation Rating Normalized to 1,2-PG / Pigmentation Rating Normalized to 1M / Pigmentation Rating Background Corrected: concentrations as E85; for Pigmentation Rating Background Corrected: corrected for Nair control; for Pigmentation Rating: sites c and d, 11.0M 2,3-M-2,3-BD, 11.3M 2-M-1,3-PG, 8.7M 1,2-cs-CPD, 4.0M 3,3-M-1,2-BD; for relative melanogenesis rating (mean ±SE), scale 0-4: 25 μl twice per day for 5 days, rated two weeks after, full strength solutions
Procedure: Compounds were tested for melanogenic activity in vivo by application to American short-haired guinea pigs. Treatment sites were created by removal of fur using Nair® brand depilatory. In the Table, the numbers presented are the relative melanogenesis rating (mean ±SE), and are arranged according to the relative location on the animal, with the head being to the left and the tail being to the right. Propylene glycol (PG=13.6M), 2,3-butanediol (2,3-BD=10.95M), and 1,2-cis-cyclopentanediol (1,2-cs-CPD=10.7M) were applied as full strength solutions. 3,3-dimethyl-1,2-butanediol (3,3-M-1,2-BD) was applied as a 4M solution dissolved in ethanol. Two weeks following cessation of treatments, the degree of pigmentation was subjectively rated according to the following scale:
In order to minimize the effects of dimunition of response from head to tails of animals, all future experiments were done using only treatment spots located towards the tails of animals (c and d in Table 7). Deemed as additionally beneficial, in this area of the animal differences of responsiveness to strong and weak inducers of pigmentation, as deduced from cell culture, were greatest. […] Pigmentation ratings were corrected for background (control treatment spots), normalized to 1M to account for the different amounts of each agent applied, and then normalized to results for 1,2-PG (Table 8). […] It is anticipated that further improvements in formulation will additionally improve responsiveness to 5-NBene-2,2-DM and other compounds in this invention.
In FIG. 5, a, b, c and d indicate treatment spots that transverse the anterior-posterior axis along the backs of guinea pigs.

[5] = tested on: Cloudman S91 mouse melanoma cell line; assay: Melanin content of S91 cells after treatment with test compound; assay type: cell-based
Procedure: The Cloudman S91 mouse melanoma cell line was obtained from American Type Culture Collection (ATCC). […] For testing propylene glycol and analogues for induction of melanogenesis, S91 cells were plated at 10^5 cells/35 mm dish in 10% calf serum. […] Cells were cultured for 6 days at 37° C. in 5% CO2 in a humidified incubator. Following this treatment period, cells were examined microscopically and the portion of dedifferentiated and differentiated cells was estimated.
as §2, with “Melanin was extracted from cells by vortexing for 15 min in 1N NaOH. Standards were prepared by dissolving melanin (Sigma) in 1 N NaOH (Eller, et al., 1996).” left out

[6] = tested on: Normal human epidermal melanocytes (NHEMs); assay: Melanin induction in normal human epidermal melanocytes; assay type: cell-based
Procedure: Normal human epidermal melanocytes (NHEMs) were examined for induction of melanogenesis using cells and media from Clonetics Corporation (San Diego, Calif.). Cells were cultured exactly as specified by the supplier.

[7] = tested on: Cloudman S91 mouse melanoma cell line; assay: Trypsinization detachment time of S91 cells; assay type: cell-based
Procedure: as §2

[8] = tested on: Cloudman S91 mouse melanoma cell line; assay: Microscopic morphology (differentiation) of S91 cells; assay type: cell-based
Procedure: as §1

[9] = spot a (anterior), 8.7M 1,2-cis-CPD in 20% ETOH, 1M 5-NBene-2,2-DM in 8.5 M propylene glycol, 2% 2-pyrrolidone, 20% ETOH, 1M 2,3-cs/ex PD in 50% ETOH
[10] = spot d (posterior), formulations as E220
[11] = range of concentrations up to a toxic dose

## CC1(C)[C@@H]2C[C@H]1[C@@](C)(O)[C@@H](O)C2 (relative stereo) [2,3-cs/ex-PD, 2,3-cis/exo-pinanediol ([1R,2R,3S,5R]-[−]-pinanediol)]
[1]; 0.5 mM
  nmoles NO/10^6 Cells: 10.9 ± 0.2 nmoles NO/10^6 Cells
  uM NO: 3.54 ± 0.06 µM
[1]; 1 mM
  nmoles NO/10^6 Cells: 24.5 ± 5.4 nmoles NO/10^6 Cells
  uM NO: 6.36 ± 1.56 µM
[1]; 2.5 mM
  nmoles NO/10^6 Cells: 131 ± 15 nmoles NO/10^6 Cells
  uM NO: 12.6 ± 0.5 µM
[1]; 5 mM
  nmoles NO/10^6 Cells: 174 ± 15 nmoles NO/10^6 Cells
  uM NO: 11.0 ± 1.1 µM
[2]; 0.5 mM (Table 19)
  Fold Induction of Tyrosinase Relative to Controls: 5.1X
[2]; 500 uM
  more tyrosinase activity than 5-norbornene-2,2-dimethanol: 2.6 fold
[2]; 1 mM (Table 19)
  Fold Induction of Tyrosinase Relative to Controls: 17.6X
[2]; 1 mM
  more tyrosinase activity than 5-norbornene-2,2-dimethanol: 5.2 fold
[2]; 2.5 mM (Table 19)
  Fold Induction of Tyrosinase Relative to Controls: 119X
[2]; 2.5 mM
  more tyrosinase activity than 5-norbornene-2,2-dimethanol: 7.3 fold
[2]; 5 mM (Table 19)
  Fold Induction of Tyrosinase Relative to Controls: 50.6X
[2]; Table 19 data
  relative melanogenic potency in S91 cells (in words): only slightly more potent than (1S, 2S, 3R, 5S)-(+)-pinanediol
[3]; 0.5 mM, 4 days, X ± SE, n = 3
  Cells (×10^6): 0.325 ± 0.002 ×10^6
[3]; 1 mM, 4 days, X ± SE, n = 3
  Cells (×10^6): 0.258 ± 0.010 ×10^6
[3]; 2.5 mM, 4 days, X ± SE, n = 3
  Cells (×10^6): 0.099 ± 0.014 ×10^6
[3]; 5 mM, 4 days, X ± SE, n = 3
  Cells (×10^6): 0.064 ± 0.006 ×10^6
[4]; [9]
  Pigmentation Ratings (X ± SE; n = 6; scale 0 to +4): 2.00 ± 0.20
[4]; spot b, formulations as E220
  Pigmentation Ratings (X ± SE; n = 6; scale 0 to +4): 1.75 ± 0.17
[4]; spot c, formulations as E220
  Pigmentation Ratings (X ± SE; n = 6; scale 0 to +4): 1.75 ± 0.17
[4]; [10]
  Pigmentation Ratings (X ± SE; n = 6; scale 0 to +4): 1.04 ± 0.32

## O[C@@H]1CCC[C@@H]1O [1,2-cs-CPD, 1,2-cis-cyclopentanediol]
[2]
  Tyrosinase dpm/hr 10^3 Cells: 276 ± 16 dpm/hr/10^3 Cells
  Tyrosinase dpm/hr ug Protein: 925 ± 53 dpm/hr/ug Protein
[4]
  Pigmentation Rating Normalized to 1,2-PG: 13.5 ± 1.9
  Pigmentation Rating Normalized to 1M: 0.202 ± 0.029
  Pigmentation Rating Background Corrected: 1.75 ± 0.25
[4]; 13.61M 1,2-PG
  Pigmentation Rating: 1.89 ± 0.27
[4]; guinea pig, 5 days
  greater melanogenesis than PG applied at similar body locations: 5.5 fold
[4]; site d (tail)
  relative melanogenesis rating (mean ±SE), scale 0-4: 1.83 ± 0.33^2
[4]; [9]
  Pigmentation Ratings (X ± SE; n = 6; scale 0 to +4): 1.83 ± 0.17
[4]; spot b, formulations as E220
  Pigmentation Ratings (X ± SE; n = 6; scale 0 to +4): 1.92 ± 0.43
[4]; spot c, formulations as E220
  Pigmentation Ratings (X ± SE; n = 6; scale 0 to +4): 1.92 ± 0.20
[4]; [10]
  Pigmentation Ratings (X ± SE; n = 6; scale 0 to +4): 1.58 ± 0.24
[5]
  Concentration Required for ≧2-fold Melanin Induction in S91 Cells: 10 mM
[6]
  Concentration Required for ≧1.5-fold Melanin Induction in NHEMs: 50 mM

## CC(C)(O)C(C)(C)O [2,3-M-2,3-BD, 2,3-dimethyl-2,3-butanediol]
[4]
  Pigmentation Rating Normalized to 1,2-PG: 1.0 ± 0.6
  Pigmentation Rating Normalized to 1M: 0.015 ± 0.008
  Pigmentation Rating Background Corrected: 0.17 ± 0.09
[4]; 13.61M 1,2-PG
  Pigmentation Rating: 0.25 ± 0.14
[4]; sites towards tail, 13.61M 1,2-PG, 10.6M 1,2-PG/2% 2P, 11M 2,3-dimethyl-2,3-butanediol
  pigmentation response versus control (Nair or 2% 2P treated) spots: not significantly different from control
[5]
  Concentration Required for ≧2-fold Melanin Induction in S91 Cells: 25 mM
[6]
  Concentration Required for ≧1.5-fold Melanin Induction in NHEMs: 50 mM

## Oc1cccnc1O [2,3-Pyridinediol, 2,3-pyridinediol]
[2]
  Tyrosinase dpm/hr 10^3 Cells: 142 ± 8 dpm/hr/10^3 Cells
  Tyrosinase dpm/hr ug Protein: 160 ± 19 dpm/hr/ug Protein
[3]; levels higher than 500 uM
  toxicity to S91 cells: toxic
[5]
  Concentration Required for ≧2-fold Melanin Induction in S91 Cells: 0.1 mM
[6]
  Concentration Required for ≧1.5-fold Melanin Induction in NHEMs: 0.2 mM

## CC(O)C(C)O (centres unmarked) [BD-2,3, 2,3-butanediol]
[7]; 50 mM
  Trypsinization Detachment Time: 3 min
[7]; 150 mM
  Trypsinization Detachment Time: 9 min
[3]; 50 mM
  Cells (×10^6): 0.072 ×10^6
[3]; 150 mM
  Cells (×10^6): 0.040 ×10^6
  reduction of cell numbers: one-third
[4]; same relative body position
  melanogenesis in guinea pigs (in words): only slightly better melanogenic agents than propylene glycol
[4]; site b
  relative melanogenesis rating (mean ±SE), scale 0-4: 1.33 ± 0.17^2
[4]; site d (tail)
  relative melanogenesis rating (mean ±SE), scale 0-4: 0.25 ± 0.14
[5]
  Concentration Required for ≧2-fold Melanin Induction in S91 Cells: 100 mM
[5]; 50 mM
  pg Melanin/Cell: 15.6 pg Melanin/Cell
  ug Melanin: 1.12 µg
[5]; 150 mM
  pg Melanin/Cell: 23.8 pg Melanin/Cell
  ug Melanin: 0.95 µg
[8]; 50 mM
  Morphology Flattened Cuboidal: 75%
  Morphology Rounded Spindly: 25%
[8]; 150 mM
  Morphology Flattened Cuboidal: 100%

## O=C[C@H](O)[C@H](O)[C@H](O)CO [D-ribose]
[5]; [11]
  melanogenesis in S91 cells (≧2-fold increase = significant): did not induce significant (≧2-fold increase) melanogenesis
[6]; [11]
  melanin induction in NHEMs (in words): inactive
